Source: patent publication US9486536B2 (Immunomedics, Inc., priority 2013, dated 2016)

Columns and labels:
[1] = relative to doxorubicin; cited from earlier work
[2] = test system: Daudi, Raji, Ramos and JVM-3 hematopoietic tumor lines; experiment: cytotoxicity of P2PDox-mAb conjugates to target cells; type: cell-based; settings: not shown
Text: The cytotoxicity of P2PDox-mAb conjugates to target cells was examined. hRS7-P2PDox and hMN-15-P2PDox were cytotoxic to MDA-MB-468, AG S, NCI-N87 and Capan-1 solid tumor cell lines (not shown). hMN-14-P2PDox was cytotoxic to Capan-1, BxPC-3 and AsPC-1 human pancreatic tumor lines and AGS, NCI-N87 and LS147T human gastric and colonic tumor lines (not shown). hLL2-P2PDOx was cytotoxic to Daudi, Raji, Ramos and JVM-3 hematopoietic tumor lines (not shown). IC50 values for the conjugates were in the nanomolar concentration range (not shown).

CD22 = CD22 (Homo sapiens, UniProt P20273); experiment: antibody binding to target antigen after conjugation
[3] = test system: Non-Hodgkin's Lymphoma (NHL); experiment: treatment of NHL patients; type: in vivo, human
Method: A P2PDox-epratuzumab ADC is prepared as described in Examples 1 and 3 above. Seventeen patients with previously untreated or relapsed NHL receive 4 doses of 70, 100 or 150 mg P2PDox-epratuzumab injected i.v. every two weeks. Responses are assessed by CT scans, with other evaluations including adverse event, B-cell blood levels, serum epratuzumab levels and human anti-epratuzumab (HAHA) titers.

moderately active SLE = experiment: open-label study in SLE patients
Method: An open-label, single-center study of patients with moderately active SLE (total British Isles Lupus Assessment Group (BILAG) score 6 to 12) is conducted. Patients receive dosages of epratuzumab-P2PDox (conjugated at a drug/antibody ratio of 3.5) of 10, 20, 40 and 60 mg conjugate i.v. every other week for 3 injections, repeated 4 months later. Evaluations include safety, SLE activity (BILAG), blood levels of B and T cells, and human anti-epratuzumab antibody (HAHA) titers.

[4] = 4 doses of 70, 100 or 150 mg i.v. every two weeks, 17 patients

In the case of `COc1cccc2c1C(=O)c1c(O)c3c(c(O)c1C2=O)C[C@@](O)(C(=O)CO)C[C@@H]3O[C@H]1C[C@H](N2C=CCC2)[C@H](O)[C@H](C)O1` [2-pyrrolinodoxorubicin], the “cytotoxicity, times that of doxorubicin” value [1] is listed as 500-1000 times.
With hLL2-P2PDox the cytotoxicity [2] was “cytotoxic”, the “effect of conjugation on antibody binding” value (CD22) was “lack of effect of conjugation on antibody binding to target antigen” and the “complete response/complete response unconfirmed rate” value [3, 4] was 24%. For the same molecule, the objective response rate [3, 4] was 47%, the “transient B-cell depletion” value ([3]; all dosage levels) was “up to 25%” and the “human anti-epratuzumab antibody (HAHA) in serum samples” value ([3]; human, in vivo) was “negative”. The “objective responses continuing for 30 weeks or more” value ([3]; human, in vivo) was “Four of the eight”, the safety issues ([3]; reversible after interrupting therapy) was “neutropenia up to Grade 3” and the “decrease of total BILAG scores” value (moderately active SLE; all patients, 10, 20, 40 and 60 mg i.v. every other week for 3 injections, drug/antibody ratio 3.5) was “at least 50%”. For the same molecule, the “patients with improvement in at least one BILAG B- or C-level disease activity” value (moderately active SLE; at 6, 10 and 18 weeks) was 93%, the “average decrease of B-cell levels” value (moderately active SLE; at 18 weeks) was 35% and the “patients with BILAG decreases continuing to at least 18 weeks” value (moderately active SLE; human, in vivo) was 92%. The tolerability (moderately active SLE; human, in vivo) was “well tolerated”.
